Measurements as given in patent publication US11220548B2, “Treatment of C1013G/CXCR4-associated Waldenstrom's macroglobulinemia with an anti-CXCR4 antibody” (BRISTOL-MYERS SQUIBB COMPANY, priority 2013, dated 2022).

Assays:
[1] = test system: WM cell lines; test: Adhesion of WM cells to primary WM BM-MSCs; assay type: cell-based, human; details: 4 h treatment, adhesion after 2 h
Description: FIGS. 15A-15C: FIGS. 15A-15C show the effect of BMS-936564 on adhesion and proliferation of WM cells in vitro. WM cell lines were treated with BMS-936564 for 4 h and subsequently tested for adhesion to primary WM BM-MSCs. […] WM cell lines, MWCL.1 (FIG. 15B) and BCWN.1 (FIG. 15C) were cultured with control media and with BMS-936564 for 48 h in the presence or absence of primary WM BMMSCs. Cell proliferation was assessed using a [^3H]-thymidine uptake assay. Bars indicate standard deviations. P indicates P value. All data represent mean (±sd) of triplicate experiments. The CXCR4 antagonist, […] (Sigma-Aldrich, St. Louis, Mo.), was used as control.

[2] = test system: BCWM.1 cells; test: Western blot of apoptosis-related proteins in WM cells; assay type: cell-based, human; details: 14 h
Description: FIGS. 18A and 18B: FIGS. 18A and 18B show the effect of BMS-936564 on apoptosis-related proteins in WM cells. BCWM.1 cells were exposed to BMS-936564 for 14 h. Whole cell lysates were then harvested and subjected to western blot analysis using anti-caspase-9, anti-PARP and anti-tubulin antibodies (FIG. 18A), and anti-p-β catenin, anti-β-catenin, anti-p-GSK3β, and anti-tubulin antibodies (FIG. 18B).
(§1) Protein lysates were obtained from WM cells by homogenization under nondenaturing conditions in lysis buffer (Cell Signaling Technology, Beverly, Mass.) supplemented with 5 mM NaF, 2 mM Na3VO4, 1 mM PMSF ([…]), 5 μg/mL leupeptine, and 5 μg/mL aprotinin. Whole-cell lysates were subjected to sodium dodecyl sulfate-polyacrylamide gel electrophoresis (SDS-PAGE) and transferred to polyvinylidene difluoride (PVDF) membrane (Bio-Rad Laboratories, Hercules, Calif.). The antibodies used for immunoblotting included: anti-phospho(p)-ERK, anti-ERK, anti-p-Akt, anti-Akt, anti-p-Src, anti-Src, anti-caspase-9, anti-PARP, anti-p-β-catenin, anti-β-catenin, anti-p-GSK3, anti-GAPDH and anti-α-tubulin antibodies (Cell Signaling, Danvers, Mass.).

[3] = test system: C1013G/CXCR4-infected BCWM.1 cells; test: Transwell migration assay of C1013G/CXCR4-infected cells; assay type: cell-based, human; details: in the context of the BM microenvironment
Description: FIGS. 21A-21D: FIGS. 21A-21D show BMS-936564 targets C1013G/CXCR4-mutated cells in WM cells in the context of BM. C1013G/CXCR4-infected BCWM.1 cells were tested for their migratory properties using a transwell migration assay. Cells were exposed to increasing concentrations of BMS-936564 and migration was determined after 5 h. The transwell migration assay was performed in presence of either primary WM BM-MSCs (FIG. 21A) or SDF-1α (FIG. 21B). In both cases, BMS-936564-dependent inhibition of WM cell migration was observed. C1013G/CXCR4-infected BCWM.1 cells were treated with BMS-936564/for 4 h and subsequently tested for adhesion to primary WM BM-MSCs. […] C1013G/CXCR4-infected BCWM.1 cells were cultured with control media and with BMS-936564 for 48 h in the presence or absence of primary WM BM-MSCs. Cell proliferation was assessed using [^3H]-thymidine uptake assay (FIG. 21D). Bars indicate standard deviations. P indicates P value. All data represent mean (±sd) of triplicate experiments. […].

[4] = test system: C1013G/CXCR4-mutated cells; test: Western blot of survival and apoptosis-related proteins in C1013G/CXCR4-WM cells; assay type: cell-based, human
Description: FIGS. 22A-22C: FIGS. 22A-22C show the effect of BMS-936564 on survival and apoptosis-related signal proteins in C1013G/CXCR4-WM cells. C1013G/CXCR4-mutated cells were cultured in presence or absence of BMS-936564 for 6 h, showing inhibition of phospho(p)-ERK, ERK, p-Akt, Akt, p-Src (FIG. 22A). Similarly, cells were exposed to the compound for 14 h, and induction of apoptosis-related pathways was observed (p-GSK3β, and p-β-catenin (FIG. 22B), and PARP and Caspase-9 (FIG. 22C)).
as §1

[5] = test system: BCWM.1-mCherry+ cells; test: In vivo homing and tumor progression of wild-type WM cells; parameters: species or system SCID/Bg mice
Description: Serum was collected at the end of the study. […] Cell toxicity was performed by MTT. […] Bars indicate standard deviation.
Human serum IgM levels were determined by using a human IgM ELISA assay (ZeptoMetrix, Buffalo, N.Y.), according to the manufacturer's protocol.
SCID/Bg mice (n=5/group) were injected with BCWM.1 infected with either precision LentiORF/CXCR4/GFP (CXCR4^+)- or empty vector probe/RFP (control)-infected BCWM.1 cells. After three weeks, mice were euthanized and organs harvested. Hematoxylin-eosin staining, immunohistochemistry for human-CD20 and -CXCR4 were performed on explanted organs. Independent experiments were conducted to evaluate differences in survival (SCID/Bg mice, n=7/group). Similar studies were conducted using […]/CXCR4-mutated cells and control vector-infected cells (control cells). In vivo homing studies were performed using BCWM.1-mCherry^+ cells: cells were injected intravenously into […] mice and treated with either BMS-936564 or control antibody (10 mg/kg, intraperitoneally; 3-4 times per week for 3 weeks). The ability of BMS-936564 to modulate WM homing to BM, spleen and lymph nodes was evaluated ex vivo at the third week on explanted tissues, by using a fluorescence microscope (Nikon Eclipse 80i, Melville, N.Y.) (Roccaro et al., 2013).
The anti-WM activity of BMS-936564 was also tested in vivo using wild-type WM cells. BCWM.1-mCherry^+ cells were injected intravenously into SCID/Bg mice and treated mice with either BMS-936564 or control antibody.
As CXCR4 inhibition is thought to induce stem cell and tumor cell mobilization, it was hypothesized that BMS-936564 may also induce mobilization of WM cells leading to increased chemosensitivity to anti-WM agents. Accordingly, the effect of BMS-936564 in modulating tumor progression and WM cell dissemination to distant BM niches in vivo was evaluated as monotherapy or in combination with bortezomib.

In the case of “BMS-936564: fully human anti-CXCR4 monoclonal antibody; VH SEQ ID NO: 25, VL SEQ ID NO: 29”, the “WM cell adhesion to WM BM-MSCs” value [1] is reported as “inhibition”, the “caspase-9 and PARP cleavage” value [2] is reported as “increase” and the “p-GSK3-β, p-β-catenin and β-catenin” value [2] is reported as “increased phospho(p)-GSK3-β, and p-β-catenin up-regulation, leading to β-catenin degradation”. For the same substance, the “targeting migration of CXCR4-mutated cells” value [3] was “equally active”, the “p-ERK, p-Akt, and p-Src in WM cells harboring the C1013G/CXCR4 mutation” value ([4]; 6 h) was “dose-dependent inhibition” and the “GSK3-β/β-catenin signaling in CXCR4-mutated WM cells” value ([4]; 14 h) was “up-regulation of p-GSK3-β/p-β-catenin and β-catenin degradation”. The “caspase-9- and PARP-cleavage in CXCR4-mutated WM cells” value ([4]; 14 h) was “increased”, the “tumor cells within the BM” value ([5]; BMS-936564 10 mg/kg i.p., bortezomib 0.5 mg/kg i.p. x2/week, P<0.05) was “significant reduction” and the “serum IgM levels” value ([5]; human IgM ELISA at end of study, P<0.05) was “significantly reduced”. For the same substance, the “WM cell dissemination (BM, spleen and lymph nodes, immunofluorescence imaging ex vivo)” value ([5]; wild-type WM cells, 10 mg/kg intraperitoneally, vs control antibody) was “inhibit WM cell dissemination”.
